Where “and” joins values, the source holds several entries; their conditions need not be identical. Equal entries are not always repeated.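 Values below derive from 48-hour exposures of cells grown in 96-well plates, with endpoints linearly interpolated between the two concentrations bracketing the appropriate inhibition level. Abbreviation: GI50, concentration required for 50% inhibition of growth. TGI: concentration producing complete growth inhibition.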 Where only a bound is given, the exact number is not on record here.

Eight molecules from PubChem BioAssay (NCI) can be followed below.

Among the test systems are OVCAR-3 ovarian; NCI-H226 lung; RPMI-8226 leukemia; MOLT-4 leukemia; T-47D breast; SF-268 CNS; SF-539 CNS; COLO 205 colon; SK-MEL-5 melanoma; IGROV1 ovarian.
Common to all, as to test: DTP human tumour cell line panel, 48 h

As a reminder, the GI50 is the concentration that inhibits growth by half. The term TGI denotes the concentration at which net growth stops. Lower therefore signals more potent growth arrest. With `Cn1cc(C2=C(c3c4n(c5ccccc35)CCCC4)C(=O)NC2=O)c2ccccc21`, the GI50 in the assay on OVCAR-3 ovarian was 6.43 µM; in the assay with NCI-H226 lung, above 22 µM; in the assay with RPMI-8226 leukemia, above 15.6 µM; with MOLT-4 leukemia it was above 17.2 µM; in the assay with T-47D breast it was above 15.5 µM; with SF-268 CNS, 12 µM. Further, the GI50 is 10.5 µM with SF-539 CNS, 10.7 µM in the assay with COLO 205 colon, 7.94 µM in the assay on SK-MEL-5 melanoma and above 8.23 µM in the assay with IGROV1 ovarian. The TGI with OVCAR-3 ovarian is above 21.6 µM; in the assay on NCI-H226 lung it was above 25 µM; in the assay with RPMI-8226 leukemia, above 25 µM; in the assay on MOLT-4 leukemia, above 25 µM; in the assay on T-47D breast, above 25 µM; with SF-268 CNS, above 25 µM. Also, the TGI in the assay on SF-539 CNS, in the assay on COLO 205 colon, with SK-MEL-5 melanoma and in the assay on IGROV1 ovarian was above 25 µM throughout.

In the case of `COc1cc2ccccc2c2cc([N+](=O)[O-])oc12`, the concentration for total growth inhibition (TGI) with OVCAR-3 ovarian was 5.41 µM; in the assay with NCI-H226 lung, 3.04 µM; in the assay with RPMI-8226 leukemia it was 14.7 µM; in the assay with MOLT-4 leukemia it was 3.95 µM; with T-47D breast, above 45.6 µM; in the assay with SF-268 CNS, above 27.1 µM. For the same molecule, the concentration for total growth inhibition (TGI) stood at 7.75 µM in the assay on SF-539 CNS, 2.36 µM with COLO 205 colon, 0.293 µM with SK-MEL-5 melanoma and 7.19 µM with IGROV1 ovarian.

Regarding `COc1ccc(-c2nn(-c3ccc(NC(=O)c4ccc(Cl)c(C(F)(F)F)c4)cc3)cc2-c2ccncc2)cc1Cl`, the GI50 in the assay on OVCAR-3 ovarian is 1.99 µM; in the assay on NCI-H226 lung, 4.75 µM; with RPMI-8226 leukemia, 0.39 µM; with MOLT-4 leukemia it was 0.388 µM; with T-47D breast, 3.78 µM; with SF-268 CNS it was 0.896 µM. The GI50 was 0.5 µM in the assay on SF-539 CNS, 1.27 µM in the assay with COLO 205 colon, 1.33 µM with SK-MEL-5 melanoma and 9.68 µM in the assay on IGROV1 ovarian. Also, the TGI with OVCAR-3 ovarian, in the assay with NCI-H226 lung, in the assay on RPMI-8226 leukemia, in the assay with MOLT-4 leukemia, with T-47D breast and in the assay on SF-268 CNS was above 100 µM throughout. In addition, the TGI is 3.48 µM in the assay with COLO 205 colon, 3.84 µM in the assay on SK-MEL-5 melanoma and above 100 µM in the assay on IGROV1 ovarian.

As to `Cc1onc(-c2c(F)cccc2Cl)c1-c1ncc(-c2ccc(Cl)cc2)o1`, the GI50 is 8.84 µM with OVCAR-3 ovarian; 5.93 µM in the assay on NCI-H226 lung; 2.77 µM in the assay with RPMI-8226 leukemia; 4.61 µM in the assay with MOLT-4 leukemia; 3.48 µM with T-47D breast; 7.3 µM in the assay with SF-268 CNS. Besides, the GI50 was 5.07 µM in the assay with SF-539 CNS, 4.11 µM with COLO 205 colon, 2.55 µM in the assay with SK-MEL-5 melanoma and 6.44 µM in the assay with IGROV1 ovarian. In addition, the concentration for total growth inhibition (TGI) in the assay on OVCAR-3 ovarian was above 100 µM; with NCI-H226 lung, above 100 µM; in the assay with RPMI-8226 leukemia it was 44.9 µM; with MOLT-4 leukemia, above 100 µM; with T-47D breast, above 100 µM; with SF-268 CNS, above 100 µM. The TGI with SF-539 CNS was above 100 µM; in the assay on COLO 205 colon, above 100 µM; in the assay with SK-MEL-5 melanoma it was 8.33 µM; in the assay on IGROV1 ovarian, above 100 µM.

Regarding `O=S(=O)(Nc1cc(Br)c(O)c2ccccc12)c1ccc(F)cc1`, the GI50 in the assay with OVCAR-3 ovarian was 2.56 µM; in the assay with NCI-H226 lung, 18.3 µM; in the assay with RPMI-8226 leukemia, 2.94 µM; in the assay with MOLT-4 leukemia, 2.31 µM; in the assay on T-47D breast, 2.58 µM; in the assay on SF-268 CNS, 3.2 µM. The GI50 in the assay with SF-539 CNS is 2.33 µM; in the assay with COLO 205 colon, 10.7 µM; with SK-MEL-5 melanoma, 1.79 µM; with IGROV1 ovarian, 2.59 µM. Moreover, the TGI was determined as 6.4 µM in the assay with OVCAR-3 ovarian; 38.9 µM in the assay on NCI-H226 lung; 20.1 µM in the assay with RPMI-8226 leukemia; 5.33 µM with MOLT-4 leukemia; 8.5 µM in the assay on T-47D breast; 12.1 µM in the assay on SF-268 CNS. In addition, the TGI was 5.48 µM in the assay with SF-539 CNS, 29.5 µM in the assay with COLO 205 colon, 3.35 µM in the assay with SK-MEL-5 melanoma and 5.51 µM in the assay on IGROV1 ovarian.

Consider `COc1ccc(Cl)cc1Nc1nc(C(F)(F)F)ccc1C(=O)N/N=C/c1ccc([N+](=O)[O-])cc1`, for which the GI50 in the assay with OVCAR-3 ovarian was 1.25 µM; in the assay with NCI-H226 lung, 2.01 µM; with RPMI-8226 leukemia, 1.6 µM; in the assay with MOLT-4 leukemia, 3.82 µM; with T-47D breast, 1.81 µM; in the assay on SF-268 CNS it was 1.69 µM. The GI50 in the assay with SF-539 CNS was 3.05 µM; with COLO 205 colon, 1.65 µM; in the assay on SK-MEL-5 melanoma, 1.98 µM; with IGROV1 ovarian it was 2.56 µM. Moreover, the total growth inhibition concentration (TGI) stood at 3.78 µM in the assay with OVCAR-3 ovarian; 8.65 µM in the assay on NCI-H226 lung; 6.55 µM in the assay with RPMI-8226 leukemia; 13.2 µM with MOLT-4 leukemia; 7.75 µM in the assay on T-47D breast; 5.8 µM in the assay on SF-268 CNS. In addition, the TGI in the assay with SF-539 CNS stood at 19.1 µM; in the assay with COLO 205 colon it was 3.58 µM; in the assay on SK-MEL-5 melanoma, 4.86 µM; in the assay with IGROV1 ovarian it was 6.49 µM.

Consider `COC(=O)CCC(C)[C@H]1CCC2C3C(C[C@H](OC(C)=O)[C@@]21C)[C@@]1(C)CCC2(C[C@H]1C[C@H]3OC(C)=O)OOC1(CCC(C)CC1)OO2` (some centres not stated), for which the TGI in the assay on OVCAR-3 ovarian was > 100 µM and 72 µM; in the assay on NCI-H226 lung, above 100 µM; with RPMI-8226 leukemia, 6.34 µM and 17.2 µM; in the assay on MOLT-4 leukemia, above 100 µM; with T-47D breast it was above 100 µM; with SF-268 CNS, above 100 µM. The TGI is above 100 µM in the assay with SF-539 CNS; above 100 µM with COLO 205 colon; above 100 µM in the assay on SK-MEL-5 melanoma; 16.4 µM and 27.3 µM in the assay on IGROV1 ovarian. Further, the GI50 in the assay on RPMI-8226 leukemia is 1.28 µM and 3.15 µM; in the assay on MOLT-4 leukemia it was 2.86 µM and 25.5 µM; in the assay with SF-268 CNS, 8.26 µM and 32.8 µM; with COLO 205 colon, 8.13 µM and 48.8 µM; in the assay with IGROV1 ovarian, 3.82 µM and 10.1 µM.

As for `NC(C/[N+]([O-])=N/O)C(=O)O` (configuration not stated), the GI50 in the assay with OVCAR-3 ovarian is 20.1 µM and 44.5 µM and 13 µM; in the assay with RPMI-8226 leukemia it was > 43.8 µM and 46.5 µM and 18 µM; in the assay on MOLT-4 leukemia it was 23.3 µM; with T-47D breast it was 198 µM; in the assay with SF-268 CNS, 6.55 µM and 2.88 µM and 5.56 µM; with COLO 205 colon, 21.6 µM and 69.7 µM and 17.4 µM. The GI50 is 1.9 µM and 8.31 µM and 1.46 µM in the assay on SK-MEL-5 melanoma; 0.107 µM and 0.967 µM and 0.348 µM with IGROV1 ovarian. For the same molecule, the concentration for total growth inhibition (TGI) is > 100 µM and 342 µM with OVCAR-3 ovarian; above 468 µM in the assay on NCI-H226 lung; above 500 µM with RPMI-8226 leukemia; > 100 µM and 315 µM with MOLT-4 leukemia; above 500 µM with T-47D breast; above 482 µM with SF-268 CNS. For the same molecule, the concentration for total growth inhibition (TGI) in the assay on SF-539 CNS is > 100 µM and 366 µM; in the assay on COLO 205 colon, > 62.7 µM and > 100 µM and 256 µM; in the assay on SK-MEL-5 melanoma it was > 42.7 µM and > 100 µM and 114 µM; in the assay on IGROV1 ovarian it was > 24.7 µM and > 100 µM and 256 µM.
